According to patent publication US12569495B2, “Inhibitors of porcine reproductive and respiratory syndrome virus” (UNIVERSITY OF CONNECTICUT, priority 2020, dated 2026):

What was measured:
PRRSV strain VR-2332 [1] = experiment: qRT-PCR for PRRSV RNA in infected PAMs; format: cell-based; conditions: 15 μM; VR-2332; 24 h
Protocol: Total RNA was extracted from PAMs infected with PRRSV using RNeasy Mini Kit (Qiagen, Germantown, MD) according to the manufacturer's instruction. RNA concentrations were measured using a Nanodrop spectrophotometer (Thermo Fisher Scientific). GAPDH was used as a housekeeping gene for gene expression normalization. Data were processed with the software associated with ABI 7500.
(§1) For PRRSV infection of PAM cells, PAMs were seeded one day prior to infection. […] Cells were inoculated with VR-2332, SDSU73, NADC30 or Lelystad PRRSV at MOI=0.1 for 1 h. The 24 h cell medium supernatant was stored at −80° C. until use.

[2] = target: T1, protein-protein interactions (PPI) between CD163-SRCR5 domain and PRRSV GP2a protein (Sus scrofa, UniProt Q2VL90); experiment: BiFC assay between SRCR5-VN and GP2a-VC proteins; format: cell-based, porcine CD163; PRRSV; conditions: for inhibition of CD163-SRCR5/GP2a PPI in the BiFC assay, B7 analogues: HEK293T cells, DMSO as Ctrl, concentration not given; for inhibitory function in BiFC assay compared with B7: methyl and/or fluoro groups removed from the benzenesulfonamide moiety
T1 construct: The amplified cDNA fragments of SRCR2 or SRCR5 were subcloned into the pBiFC-VN155(I152L) vector; Myc tag (from vector backbone pMyc-CMV); expressed in transfected cells; host or cells: HEK293T
From the text: The N-terminus and C-terminus of the truncated Venus-I152L were inserted into vector backbone pMyc-CMV and pCMV-HA, constituting commercial plasmids pBiFC-VN155(I152L) and pBiFC-VC155, respectively (Addgene, Watertown, MA, USA). See Kodama and Hu, Biotechniques 49:793-805 (2010). cDNA fragments for the scavenger receptor cysteine-rich domain 2 (SRCR2) and SRCR5 of porcine CD163 receptor, and for PRRSV glycoproteins GP2a and GP4 were amplified by RT-PCR. The amplified cDNA fragments of SRCR2 or SRCR5 were subcloned into the pBiFC-VN155(I152L) vector digested with EcoRI/BglII. For constructions of GP2a and GP4 fusion proteins, cDNA fragments encoding GP2a or GP4 were subcloned into the pBiFC-VC155 vector digested with EcoRI/BglII. All plasmid clones were verified by DNA Sanger sequencing.
HEK293T cells cultured in 12-well plates were transfected with appropriate plasmids for each BiFC assay using FuGENE® 6 (Promega, Madison, WI, USA). After 5 h, various concentrations of chemical compounds were added to the culture media. DMSO was used as the vehicle control. Fluorescence images of treated cells at 24 h after plasmid transfection were captured using an inverted Nikon fluorescence microscope. Fluorescence intensity of treated cells was measured by ImageJ.
Using the previously described BiFC vector based on the fragmented venus protein (VN-155[I152L], hereafter named VN) and (VC-155, hereafter named VC), fusion protein constructs were established between the porcine CD163 protein SRCR5 or SRCR2 domain and VN, and between the PRRSV minor glycoproteins (GP2a or GP4) and VC (FIG. 1A, 2). See Kodama et al., Biotechniques 49(5): 793-805 (2010). These plasmids were co-expressed in HEK293T cells to evaluate the PPIs between the SRCR5 domain and GP2a or GP4.
The BiFC assays was tested to determine whether it could identify small molecules with potential to block the protein-protein interactions between CD163 and PRRSV. A customized virtual screen of a library of commercially available small molecules was performed with the AtomNet® model at a region centered around R561 (FIG. 3) based on the available 3-D protein structure of porcine CD163-SRCR5 domain, and 74 compounds predicted to target this potential binding site were procured. Ma et al., J. Virol. 91(3): e01897-16 (2017). These compounds were tested using the BiFC assay, to evaluate their ability to inhibit the PPI between GP2a and SRCR5. Plasmids were co-transfected in HEK293T cells, 4 h later, compounds were individually administered to cells at 5 μM. Twenty-four hours later, images were taken under a fluorescence microscope and the fluorescence quantified. […] Until these studies, there has been no known biological activity reported for compound B7.

PRRSV strain VR-2332 [3] = experiment: PRRSV titration assay of culture media of infected PAMs; format: cell-based; conditions: 15 μM; for log reduction of viral titer: pre- and post-inoculation treatment; for inhibitory function in PRRSV infection assay compared with B7: qRT-PCR and titration (FIG. 7B, 7C)
Protocol: as §1
For PRRSV titration assay, MARC145 cells were seeded in 48-well plates and grew to ˜80% density before inoculation. Viral supernatants were prepared by 10-fold serial dilution, and 100 μl of the dilutions was added per well in six replicates. Inocula were removed from cells after 2 h and replaced with 0.5 mL of DMEM supplemented with 2% FBS, 2 mM glutamine, 0.1 mM MEM non-essential amino acids, 50 U/mL penicillin, and 50 μg/mL streptomycin (Invitrogen). Cells were cultured at 37° C. for 6 days and any cytopathic effects were observed and recorded. The PRRSV titer was calculated using the Reed and Muench method and expressed as median tissue culture infectious dose (TCID50/mL). Reed and Muench, Am. J. Epidemiol. 27(3): 493-497 (1938).

T1 sequence (Q2VL90 477-577): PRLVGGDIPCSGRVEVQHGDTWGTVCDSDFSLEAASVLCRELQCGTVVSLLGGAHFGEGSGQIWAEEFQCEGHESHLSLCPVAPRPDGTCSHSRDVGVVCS

Structure (SMILES) | PRRSV RNA level in treated PAMs (qRT-PCR), B7 analogues (PRRSV strain VR-2332 [1]) | inhibition of CD163-SRCR5/GP2a PPI in the BiFC assay, B7 analogues [2] | inhibitory function in BiFC assay compared with B7 [2] | log reduction of viral titer (PRRSV strain VR-2332 [3]; 24 h) [log] | inhibitory function in PRRSV infection assay compared with B7 (PRRSV strain VR-2332 [3]) | inhibition of PRRSV infection of PAMs (titration of culture media), B7 analogues (PRRSV strain VR-2332 [3]; 24 h)
Cc1ccc(S(=O)(=O)Nc2nc3ccccc3nc2N2CCOCC2)cc1 [Compound B7-A5, 4-methyl-N-(3-morpholinoquinoxalin-2-yl)benzenesulfonamide] | failed to inhibit PRRSV RNA level | completely blocked their ability to inhibit |  |  |  | 
Cc1ccccc1S(=O)(=O)Nc1nc2ccccc2nc1Nc1ccc(S(=O)(=O)N2CCOCC2)cc1 [Compound B7-A2, 2-methyl-N-[3-(4-morpholin-4-ylsulfonylanilino)quinoxalin-2-yl] benzenesulfonamide] |  | does not eliminate these compounds' ability to inhibit | weakened the compound's inhibitory function | 2.4 | weakened the compound's inhibitory function | 
O=S(=O)(Nc1nc2ccccc2nc1Nc1cccc(S(=O)(=O)N2CCOCC2)c1)c1ccccc1 [Compound B7-A3, N-[3-(3-morpholin-4-ylsulfonylanilino)quinoxalin-2-yl] benzenesulfonamide] |  |  | weakened the compound's inhibitory function | 1.2 | weakened the compound's inhibitory function | 
Cc1ccccc1S(=O)(=O)Nc1nc2ccccc2nc1N1CCOCC1 [Compound B7-A6, 2-methyl-N-(3-morpholin-4-ylquinoxalin-2-yl) benzenesulfonamide] |  | completely blocked their ability to inhibit |  |  |  | 
Cc1ccc(S(=O)(=O)Nc2nc3ccccc3nc2Nc2cccc(S(=O)(=O)N3CCCCC3)c2)cc1 [Compound B7-A4, 4-methyl-N-[3-(3-piperidin-1-ylsulfonylanilino)quinoxalin-2-yl] benzenesulfonamide] |  | does not eliminate these compounds' ability to inhibit |  | 2.8 |  | 
O=S(=O)(Nc1nc2ccccc2nc1Nc1ccc(Cl)c(S(=O)(=O)N2CCOCC2)c1)c1ccccc1 [Compound B7-A1, N-[3-(4-chloro-3-morpholin-4-ylsulfonylanilino)quinoxalin-2-yl] benzenesulfonamide] |  |  | weakened the compound's inhibitory function | 2.2 | weakened the compound's inhibitory function | 
Nc1cccc(S(=O)(=O)N2CCOCC2)c1 [Compound B7-A7, 3-(morpholinosulfonyl)aniline] |  |  |  |  |  | none of these 2 compounds inhibited PRRSV infection of PAMs
